Test system: HeLa cells
Assay: Flow cytometry fold response, reporter variants co-expressed with EGFP-HaloTag[3-19]-5×Gly/Ser-VS-HiBiT
Type: cell-based
Settings: 100 nM ligand, compared to the less fluorogenic ligand JF646
Procedure: (§1) FIG. 95. […] Approximately 48 hours post-transfection, the cells were labeled with 100 nM JF646 HaloTag® ligand. Following a 1-hour incubation with the ligand, the cells were washed with DPBS media for 30 minutes (2× for 15 minutes each). Subsequently, the cells were lifted, and their fluorescence activity was measured using flow cytometry. […] The fold response of each assay condition was calculated as the ratio of mean fluorescence signal in the second quadrant (double positive) by the mean fluorescence signal in the third (JF646+) quadrant.
as §1, with “FIG. 96.” for “FIG. 95.”, “nM JF635” for “nM JF646”

With C[Si]1(C)c2cc(N3CC(F)C3)ccc2C2(OC(=O)c3ccc(C(=O)NCCOCCOCCCCCCCl)cc32)c2ccc(N3CC(F)C3)cc21 [JF635] the Fluorescence fold response was “fold responses are enhanced”.
